Assay results as given in patent US20230049952A1, “METHODS AND COMPOUNDS FOR RESTORING MUTANT P53 FUNCTION” (PMV Pharmaceuticals, Inc., priority 2020, published 2023).

Tested on: p53 signaling pathway in MT373 tumors
Assay: MT373 syngeneic sarcoma model: mouse p53 signaling pathway profiling panel
Format: in vivo

## CCn1c(C#CCNc2ccccc2)cc2cc(CNC3CCN(C)CC3)ccc21 [Compound 1, 1-Anilino-3-{1-ethyl-5-[(1-methyl-4-piperidylamino)methyl]-1H-indol-2-yl}-2-propyne]
150 mg/kg BIDx1, 8 h
  Il6 fold increase or percent reduction vs vehicle control: 42.72 fold or %
  Jun fold increase or percent reduction vs vehicle control: 32.68 fold or %
  Kras fold increase or percent reduction vs vehicle control: 8.77 fold or %
  Lig4 fold increase or percent reduction vs vehicle control: 9.59 fold or %
  Mdm2 fold increase or percent reduction vs vehicle control: 7.29 fold or %
  Mdm4 fold increase or percent reduction vs vehicle control: 0.59 fold or %
  Mel1 fold increase or percent reduction vs vehicle control: 3.87 fold or %
  Mlh1 fold increase or percent reduction vs vehicle control: 28.64 fold or %
  Msh2 fold increase or percent reduction vs vehicle control: 35.13 fold or %
  Myod1 fold increase or percent reduction vs vehicle control: 14.90 fold or %
  Nf1 fold increase or percent reduction vs vehicle control: 17.13 fold or %
  Nfkb1 fold increase or percent reduction vs vehicle control: 6.02 fold or %
  Pcna fold increase or percent reduction vs vehicle control: 44.75 fold or %
  Pmaip1 fold increase or percent reduction vs vehicle control: 2.33 fold or %
  Ppm1d fold increase or percent reduction vs vehicle control: 1.44 fold or %
  Prc1 fold increase or percent reduction vs vehicle control: 17.14 fold or %
  Prkca fold increase or percent reduction vs vehicle control: 27.03 fold or %
  Pten fold increase or percent reduction vs vehicle control: 14.47 fold or %
  Pttg1 fold increase or percent reduction vs vehicle control: 3.91 fold or %
  Rb1 fold increase or percent reduction vs vehicle control: 1.08 fold or %
  Rela fold increase or percent reduction vs vehicle control: 5.08 fold or %
  Rprm fold increase or percent reduction vs vehicle control: 1.81 fold or %
  Serpinb5 fold increase or percent reduction vs vehicle control: 2.43 fold or %
  Sesn2 fold increase or percent reduction vs vehicle control: 2.88 fold or %
  Sfn fold increase or percent reduction vs vehicle control: 15.09 fold or %
  Sirt1 fold increase or percent reduction vs vehicle control: 24.95 fold or %
  Stat1 fold increase or percent reduction vs vehicle control: 1.23 fold or %
  Tnf fold increase or percent reduction vs vehicle control: 1.57 fold or %
  Traf1 fold increase or percent reduction vs vehicle control: 1.4 fold or %
  Trp53bp2 fold increase or percent reduction vs vehicle control: 29.54 fold or %
  Trp53 fold increase or percent reduction vs vehicle control: 16.49 fold or %
150 mg/kg BIDx1, 24 h
  Apex1 fold increase or percent reduction vs vehicle control: 29.90 fold or %
  Atm fold increase or percent reduction vs vehicle control: 24.13 fold or %
  Atr fold increase or percent reduction vs vehicle control: 14.58 fold or %
  Bag1 fold increase or percent reduction vs vehicle control: 32.76 fold or %
  Bax fold increase or percent reduction vs vehicle control: 1.61 fold or %
  Bbc3 fold increase or percent reduction vs vehicle control: 2.27 fold or %
  Bcl2 fold increase or percent reduction vs vehicle control: 20.93 fold or %
  Bid fold increase or percent reduction vs vehicle control: 1.08 fold or %
  Birc5 fold increase or percent reduction vs vehicle control: 53.57 fold or %
  Brca1 fold increase or percent reduction vs vehicle control: 44.99 fold or %
  Brca2 fold increase or percent reduction vs vehicle control: 34.71 fold or %
  Btg2 fold increase or percent reduction vs vehicle control: 1.06 fold or %
  Casp2 fold increase or percent reduction vs vehicle control: 28.04 fold or %
  Ccnb1 fold increase or percent reduction vs vehicle control: 69.21 fold or %
  Ccne1 fold increase or percent reduction vs vehicle control: 38.46 fold or %
  Ccng1 fold increase or percent reduction vs vehicle control: 6.84 fold or %
  Ccnh fold increase or percent reduction vs vehicle control: 16.52 fold or %
  Cdc25a fold increase or percent reduction vs vehicle control: 41.75 fold or %
  Cdk1 fold increase or percent reduction vs vehicle control: 64.58 fold or %
  Cdk4 fold increase or percent reduction vs vehicle control: 55.89 fold or %
  Cdkn1a fold increase or percent reduction vs vehicle control: 10.93 fold or %
  Cdkn2a fold increase or percent reduction vs vehicle control: 36.93 fold or %
  Chek1 fold increase or percent reduction vs vehicle control: 58.77 fold or %
  Cradd fold increase or percent reduction vs vehicle control: 18.77 fold or %
  Cul9 fold increase or percent reduction vs vehicle control: 1.05 fold or %
  Dapk1 fold increase or percent reduction vs vehicle control: 1.14 fold or %
  Dnmt1 fold increase or percent reduction vs vehicle control: 22.85 fold or %
  E2f1 fold increase or percent reduction vs vehicle control: 26.25 fold or %
  E2f3 fold increase or percent reduction vs vehicle control: 39.40 fold or %
  Egfr fold increase or percent reduction vs vehicle control: 47.37 fold or %
  Egr1 fold increase or percent reduction vs vehicle control: 66.33 fold or %
  Ep300 fold increase or percent reduction vs vehicle control: 1.15 fold or %
  Ercc1 fold increase or percent reduction vs vehicle control: 34.86 fold or %
  Esr1 fold increase or percent reduction vs vehicle control: 1.24 fold or %
  Fadd fold increase or percent reduction vs vehicle control: 8.43 fold or %
  Fas fold increase or percent reduction vs vehicle control: 1.94 fold or %
  Fasl fold increase or percent reduction vs vehicle control: 6.77 fold or %
  Foxo3 fold increase or percent reduction vs vehicle control: 1.20 fold or %
  Gadd45a fold increase or percent reduction vs vehicle control: 38.66 fold or %
  Hif1a fold increase or percent reduction vs vehicle control: 10.42 fold or %
  Il6 fold increase or percent reduction vs vehicle control: 85.31 fold or %
  Jun fold increase or percent reduction vs vehicle control: 46.70 fold or %
  Kras fold increase or percent reduction vs vehicle control: 9.19 fold or %
  Lig4 fold increase or percent reduction vs vehicle control: 1.02 fold or %
  Mdm2 fold increase or percent reduction vs vehicle control: 5.96 fold or %
  Mdm4 fold increase or percent reduction vs vehicle control: 1.22 fold or %
  Mel1 fold increase or percent reduction vs vehicle control: 9.59 fold or %
  Mlh1 fold increase or percent reduction vs vehicle control: 10.59 fold or %
  Msh2 fold increase or percent reduction vs vehicle control: 26.97 fold or %
  Myod1 fold increase or percent reduction vs vehicle control: 3.09 fold or %
  Nf1 fold increase or percent reduction vs vehicle control: 12.02 fold or %
  Nfkb1 fold increase or percent reduction vs vehicle control: 5.42 fold or %
  Pcna fold increase or percent reduction vs vehicle control: 42.63 fold or %
  Pmaip1 fold increase or percent reduction vs vehicle control: 1.45 fold or %
  Ppm1d fold increase or percent reduction vs vehicle control: 1.49 fold or %
  Prc1 fold increase or percent reduction vs vehicle control: 54.87 fold or %
  Prkca fold increase or percent reduction vs vehicle control: 28.12 fold or %
  Pten fold increase or percent reduction vs vehicle control: 1.08 fold or %
  Pttg1 fold increase or percent reduction vs vehicle control: 1.11 fold or %
  Rb1 fold increase or percent reduction vs vehicle control: 1.48 fold or %
  Rela fold increase or percent reduction vs vehicle control: 14.73 fold or %
  Rprm fold increase or percent reduction vs vehicle control: 2.12 fold or %
  Serpinb5 fold increase or percent reduction vs vehicle control: 2.23 fold or %
  Sesn2 fold increase or percent reduction vs vehicle control: 2.45 fold or %
  Sfn fold increase or percent reduction vs vehicle control: 31.21 fold or %
  Sirt1 fold increase or percent reduction vs vehicle control: 15.06 fold or %
  Stat1 fold increase or percent reduction vs vehicle control: 1.51 fold or %
  Tnf fold increase or percent reduction vs vehicle control: 1.23 fold or %
  Traf1 fold increase or percent reduction vs vehicle control: 1.20 fold or %
  Trp53bp2 fold increase or percent reduction vs vehicle control: 12.94 fold or %
  Trp53 fold increase or percent reduction vs vehicle control: 27.25 fold or %
150 mg/kg BIDx1, 48 h
  Apex1 fold increase or percent reduction vs vehicle control: 31.42 fold or %
  Atm fold increase or percent reduction vs vehicle control: 26.33 fold or %
  Atr fold increase or percent reduction vs vehicle control: 16.47 fold or %
  Bag1 fold increase or percent reduction vs vehicle control: 42.01 fold or %
  Bax fold increase or percent reduction vs vehicle control: 30.76 fold or %
  Bbc3 fold increase or percent reduction vs vehicle control: 1.04 fold or %
  Bcl2 fold increase or percent reduction vs vehicle control: 23.30 fold or %
  Bid fold increase or percent reduction vs vehicle control: 1.01 fold or %
  Birc5 fold increase or percent reduction vs vehicle control: 66.42 fold or %
  Brca1 fold increase or percent reduction vs vehicle control: 60.55 fold or %
  Brca2 fold increase or percent reduction vs vehicle control: 41.49 fold or %
  Btg2 fold increase or percent reduction vs vehicle control: 1.05 fold or %
  Casp2 fold increase or percent reduction vs vehicle control: 15.74 fold or %
  Ccnb1 fold increase or percent reduction vs vehicle control: 73.80 fold or %
  Ccne1 fold increase or percent reduction vs vehicle control: 38.25 fold or %
  Ccng1 fold increase or percent reduction vs vehicle control: 1.45 fold or %
  Ccnh fold increase or percent reduction vs vehicle control: 16.38 fold or %
  Cdc25a fold increase or percent reduction vs vehicle control: 42.22 fold or %
  Cdk1 fold increase or percent reduction vs vehicle control: 69.40 fold or %
  Cdk4 fold increase or percent reduction vs vehicle control: 54.23 fold or %
  Cdkn1a fold increase or percent reduction vs vehicle control: 1.38 fold or %
  Cdkn2a fold increase or percent reduction vs vehicle control: 38.18 fold or %
  Chek1 fold increase or percent reduction vs vehicle control: 63.16 fold or %
  Cradd fold increase or percent reduction vs vehicle control: 24.24 fold or %
  Cul9 fold increase or percent reduction vs vehicle control: 1.03 fold or %
  Dapk1 fold increase or percent reduction vs vehicle control: 1.17 fold or %
  Dnmt1 fold increase or percent reduction vs vehicle control: 34.04 fold or %
  E2f1 fold increase or percent reduction vs vehicle control: 30.48 fold or %
  E2f3 fold increase or percent reduction vs vehicle control: 33.97 fold or %
  Egfr fold increase or percent reduction vs vehicle control: 41.85 fold or %
  Egr1 fold increase or percent reduction vs vehicle control: 46.38 fold or %
  Ep300 fold increase or percent reduction vs vehicle control: 1.10 fold or %
  Ercc1 fold increase or percent reduction vs vehicle control: 44.10 fold or %
  Esr1 fold increase or percent reduction vs vehicle control: 1.67 fold or %
  Fadd fold increase or percent reduction vs vehicle control: 9.11 fold or %
  Fas fold increase or percent reduction vs vehicle control: 10.02 fold or %
  Fasl fold increase or percent reduction vs vehicle control: 1.18 fold or %
  Foxo3 fold increase or percent reduction vs vehicle control: 7.35 fold or %
  Gadd45a fold increase or percent reduction vs vehicle control: 42.12 fold or %
  Hif1a fold increase or percent reduction vs vehicle control: 2.87 fold or %
  Il6 fold increase or percent reduction vs vehicle control: 79.27 fold or %
  Jun fold increase or percent reduction vs vehicle control: 47.43 fold or %
  Kras fold increase or percent reduction vs vehicle control: 1.18 fold or %
  Lig4 fold increase or percent reduction vs vehicle control: 1.12 fold or %
  Mdm2 fold increase or percent reduction vs vehicle control: 1.03 fold or %
  Mdm4 fold increase or percent reduction vs vehicle control: 1.28 fold or %
  Mel1 fold increase or percent reduction vs vehicle control: 6.76 fold or %
  Mlh1 fold increase or percent reduction vs vehicle control: 19.02 fold or %
  Msh2 fold increase or percent reduction vs vehicle control: 29.32 fold or %
  Myod1 fold increase or percent reduction vs vehicle control: 1.51 fold or %
  Nf1 fold increase or percent reduction vs vehicle control: 9.92 fold or %
  Nfkb1 fold increase or percent reduction vs vehicle control: 4.37 fold or %
  Pcna fold increase or percent reduction vs vehicle control: 58.04 fold or %
  Pmaip1 fold increase or percent reduction vs vehicle control: 1.17 fold or %
  Ppm1d fold increase or percent reduction vs vehicle control: 2.87 fold or %
  Prc1 fold increase or percent reduction vs vehicle control: 59.70 fold or %
  Prkca fold increase or percent reduction vs vehicle control: 22.18 fold or %
  Pten fold increase or percent reduction vs vehicle control: 1.08 fold or %
  Pttg1 fold increase or percent reduction vs vehicle control: 0.69 fold or %
  Rb1 fold increase or percent reduction vs vehicle control: 1.43 fold or %
  Rela fold increase or percent reduction vs vehicle control: 9.46 fold or %
  Rprm fold increase or percent reduction vs vehicle control: 1.00 fold or %
  Serpinb5 fold increase or percent reduction vs vehicle control: 3.17 fold or %
  Sesn2 fold increase or percent reduction vs vehicle control: 1.21 fold or %
  Sfn fold increase or percent reduction vs vehicle control: 13.65 fold or %
